Experimental data from US20050054629A1, “Compounds and methods of treating cell proliferative diseases” (priority 2002, published 2005).

What was measured:
H460 lung carcinoma = test: Cytotoxicity assay (MTT), 6 days; assay type: cell-based; conditions: Homo sapiens, NCI-H460, 144 h, 6 days of treatment, read-out: Toxicity 6d (IC 50, μM) H460
Source text: (§1) Four human tumoral cell lines, namely HCT116 colon adenocarcinoma, H460 lung carcinoma, MCF-7 and MDA-MB-231 breast carcinoma cell lines, and three immortalized but non tumorigenic cell lines, namely NIH3T3 mouse fibroblasts and human breast-derived MCF10-A and MRC-5 were purchased at ATCC and cultured according to their recommendations. In order to determine the cytotoxicity associated with one compound, a microculture tetrazolium assay (MTT), as described by Carmichael et al (Cancer Res, 1996) with modifications, was used. Briefly, 5.10^3 or 2.10^4 cells were seeded per well in 24-well plates 24 hours before drug addition. Cells were treated with 0, 1, 10, 17.5, 25 and 50 μM of compound solubilized in DMSO, adjusting the total volume of DMSO (Dimethylsulfoxide) to 1%. Forty-eight hours or 6 days after treatment, the medium was replaced by PBS containing 0.5 mg/ml MTT (Sigma) and cells were incubated for 3 more hours at 37° C. before solubilization of formazan crystals in 100% DMSO. Absorbance was measured using a spectrophotometer at a wavelength of 550 nm. Cell surviving fraction and 50% inhibitory concentration were calculated. All assays were performed in triplicate.

[1] = tested on: MDA-MB-231 breast carcinoma; test: Cytotoxicity assay (MTT), 6 days; assay type: cell-based; conditions: Homo sapiens, MDA-MB-231, 144 h, 6 days of treatment, read-out: Toxicity 6d (IC 50, μM) MDA231
Source text: as §1

MCF-7 breast carcinoma = test: Cytotoxicity assay (MTT), 6 days; assay type: cell-based; conditions: Homo sapiens, MCF7, 144 h, 6 days of treatment, read-out: Toxicity 6d (IC 50, μM) MCF7
Source text: as §1

[2] = tested on: HCT116 colon adenocarcinoma; test: Cytotoxicity assay (MTT), 6 days; assay type: cell-based, human; conditions: Homo sapiens, HCT-116, 144 h, 6 days of treatment, read-out: Toxicity 6d (IC 50, μM) HCT116
Source text: as §1

NIH3T3 mouse fibroblasts = test: Cytotoxicity assay (MTT), 6 days; assay type: cell-based; conditions: NIH3T3, 144 h, 6 days of treatment, read-out: Toxicity 6d (IC 50, μM) NIH3T3
Source text: as §1

cell architecture = test: Cell architecture modification, phase contrast; assay type: cell-based; set-up: key: −: no effect of the compound was observed; +: an effect of the compound was observed
MDA-MB-231 cells = test: Matrigel invasion assay (Boyden chamber); assay type: cell-based, human; conditions: MDA-MB-231, Boyden chamber, matrigel
Procedure: Chemoinvasion assay was performed in Boyden chamber as described by Albini et al (Cancer Res, 1987) with some modifications. Polycarbonate membranes with 8 μm pores were coated with matrigel (125 μg/cm^2) at room temperature for 48 h. Two hours before experiments, the matrix was […] with serum-free medium containing 0.1% BSA.
One day after seeding, 10^6 MDA-MB-231 cells were treated overnight with different concentrations of compounds (1, 10, 17.5, 25 and 50 μM). Cells were collected with Versene (Invitrogen), counted with trypan blue exclusion, rinsed twice in serum-free medium containing 0.1% BSA and resuspended in serum-free medium containing 0.1% BSA plus the appropriate concentration of compound. 10^5 treated cells were placed in the upper chamber. Medium containing 10% of FBS plus the appropriate concentration of compound was placed in the lower chamber as a chemoattractant. The Boyden chamber was incubated 6 hours at 37° C. before the cells were fixed and stained with Diff-Quick (Dade-Berhing). Cells on the upper part of the filters were removed using a cotton swab. Cells on the underside of the filters were visualised and counted under light microscope.

| melting point | Compound | IC50 (H460 lung carcinoma) [µM] | IC50 [1] [µM] | IC50 (MCF-7 breast carcinoma) [µM] | IC50 [2] [µM] | further results |
| --- | --- | --- | --- | --- | --- | --- |
|  | O=C(O)c1cc(=O)c(OCCCCCOc2ccc(Cl)c(Cl)c2)co1 [EH6600, 5-[5-(3,4-Dichlorophenyloxy)pentyloxy]-4-oxo-4H-pyran-2-carboxylic acid] | > 50 | > 25 | 30 | > 50 |  |
|  | C/C=C/c1oc(C(=O)O)cc(=O)c1OCCCCCOc1ccc(Cl)c(Cl)c1 [EH10501] | > 50 | > 50 | > 50 | > 50 | IC50 (NIH3T3 mouse fibroblasts): > 50 µM |
|  | C/C=C/c1oc(C(=O)O)cc(=O)c1OCCCCCOc1ccccc1CCC [EH15301, (E)-2-(Propen-1-yl)-3-[5-(2-propylphenyloxy)pentyloxy]-4-oxo-4H-pyran-6-carboxylic acid] | > 50 | > 50 | > 50 | > 50 | IC50 (NIH3T3 mouse fibroblasts): > 50 µM |
|  | O=C(O)c1cc(=O)c(OCCCCCOc2cccc(Cl)c2)co1 [EH15700, 5-[5-(3-Chlorophenyloxy)pentyloxy]-4-oxo-4H-pyran-2-carboxylic acid] | > 50 | 20 | > 50 | > 50 |  |
|  | C/C=C/c1oc(C(=O)O)cc(=O)c1OCCCCCOc1ccc(Cl)cc1 [EH17401, (E)-3-[5-(4-Chlorophenyloxy)pentyloxy]-2-(propen-1-yl)-4-oxo-4H-pyran-6-carboxylic acid] | > 50 | > 50 | > 50 | > 50 | IC50 (NIH3T3 mouse fibroblasts): > 50 µM |
|  | O=C(O)c1cc(=O)c(OCCCCCOc2ccc(Cl)cc2)co1 [EH17600, 5-[5-(4-Chlorophenyloxy)pentyloxy]-4-oxo-4H-pyran-2-carboxylic acid] | > 50 | > 25 | 17.5 | > 50 |  |
|  | C/C=C/c1oc(C(=O)O)cc(=O)c1OCCCCCOc1cccc(Cl)c1 [EH18401, (E)-3-[5-(3-Chlorophenyloxy)pentyloxy]-2-(propen-1-yl)-4-oxo-4H-pyran-6-carboxylic acid] | > 50 | > 50 | > 50 | > 50 | IC50 (NIH3T3 mouse fibroblasts): > 50 µM |
|  | CCOc1ccccc1OCCCCCOc1coc(CO)cc1=O [EH18601, 5-[5-(2-Ethyloxyphenyloxy)pentyloxy]-2-(hydroxymethyl)-4H-pyran-4-one] | 25 | > 50 | 15 | 50 | IC50 (NIH3T3 mouse fibroblasts): > 50 µM; Cell architecture modification phase contrast (cell architecture): −; Invasion (MDA-MB-231 cells): No effect |
|  | O=C(O)c1cc(=O)c(OCCCCOc2ccc(Cl)c(Cl)c2)co1 [EH20700, 5-[4-(3,4-Dichlorophenyloxy)butyloxy] oxo-4H-pyran-2-carboxylic acid] | > 50 | > 50 | > 50 | > 50 |  |
|  | C/C=C/c1oc(C(=O)O)cc(=O)c1OCCCCCOc1ccc(Cl)c(Cl)c1CCC [EH22501, (E)-3-[5-(3,4-Dichloro-2-propylphenyloxy)pentyloxy]-2-(propen-1-yl)-4-oxo-4H-pyran-6-carboxylic acid] | > 50 | 50 | > 50 | > 50 | IC50 (NIH3T3 mouse fibroblasts): > 50 µM |
|  | CCCc1ccccc1OCCCCCOc1coc(C(=O)O)cc1=O [EH26900, 5-[5-(2-Propylphenyloxy)pentyloxy]-4-oxo-4H-pyran-2-carboxylic acid] | > 50 | > 50 | > 50 | > 50 |  |
|  | CCCc1c(OCCCCCOc2coc(C(=O)O)cc2=O)ccc(Cl)c1Cl [EH27900] | > 50 | > 25 | 40 | > 50 |  |
| 215 to 220 °C | O=C(OCc1cc(=O)c(OCCCCCn2ccc3ccccc32)co1)c1ccc(Cl)cc1 [EHT 0078, 4-Chloro-benzoic acid 5-(5-indol-1-yl-pentyloxy)-4-oxo-4H-pyran-2-ylmethyl ester] |  |  |  |  |  |
| 81 to 83 °C | CCNC(=O)OCc1cc(=O)c(OCCCCCn2ccc3ccccc32)co1 [EHT 1120, Ethyl-carbamic acid 5-(5-indol-1-yl-pentyloxy)-4-oxo-4H-pyran-2-ylmethyl ester] |  |  |  |  |  |
| 170 to 171 °C | O=C(Nc1ccc(Cl)cc1)OCc1cc(=O)c(OCCCCCn2ccc3ccccc32)co1 [EHT 2232, (4-Chloro-phenyl)-carbamic acid 5-(5-indol-1-yl-pentyloxy)-4-oxo-4H-pyran-2-ylmethyl ester] |  |  |  |  |  |
| 62 to 66 °C | O=C(OCc1cc(=O)c(OCCCCCn2ccc3ccccc32)co1)C1CCCCC1 [EHT 2253, Cyclohexanecarboxylic acid 5-(5-indol-1-yl-pentyloxy)-4-oxo-4H-pyran-2-ylmethyl ester] |  |  |  |  |  |
| 77 to 79 °C | CCCc1c(Cl)cc(Cl)cc1OCCCCCOc1coc(CO)cc1=O [EHT 2991] |  |  |  |  |  |
| 123 to 125 °C | C/C=C/c1oc(CO)cc(=O)c1OCCCCCOc1ccc(C#N)c(F)c1 [EHT 4112, (E)-2-Fluoro-4-[5-(6-hydroxymethyl-4-oxo-2-propenyl-4H-pyran-3-yloxy)-pentyloxy]-benzonitrile] |  |  |  |  |  |
| 103 to 105 °C (dec.) | O=C(OCc1cc(=O)c(OCCCCCn2ccc3ccccc32)co1)c1ccoc1 [EHT 4167, Furan-3-carboxylic acid 5-(5-indol-1-yl-pentyloxy)-4-oxo-4H-pyran-2-ylmethyl ester] |  |  |  |  |  |
| 150 °C (dec.) | O=C(Nc1ccccc1)OCc1cc(=O)c(OCCCCCn2ccc3ccccc32)co1 [EHT 4902, Phenyl-carbamic acid 5-(5-indol-1-yl-pentyloxy)-4-oxo-4H-pyran-2-ylmethyl ester] |  |  |  |  |  |
| 90 to 92 °C | C/C=C/c1oc(CO)cc(=O)c1OCCCCCOc1cc(C(F)(F)F)cc(C(F)(F)F)c1 [EHT 5403, (E)-3-[5-(3,5-Bis-trifluoromethyl-phenoxy)-pentyloxy]-6-hydroxymethyl-2-propenyl-4H-pyran-4-one] |  |  |  |  |  |
| 98 to 100 °C | C=CCc1cc(Cl)ccc1OCCCCCOc1coc(CO)cc1=O [EHT 5431, 5-[5-(2-Allyl-4-chloro-phenoxy)-pentyloxy]-2-hydroxymethyl-4H-pyran-4-one] |  |  |  |  |  |
| 92 to 94 °C | CCCc1cc(Cl)ccc1OCCCCCOc1coc(CO)cc1=O [EHT 6152, 5-[5-(4-Chloro-2-propyl-phenoxy)pentyloxy]-2-hydroxymethyl-4H-pyran-4-one] |  |  |  |  |  |
| 71 to 73 °C | O=C(OCc1cc(=O)c(OCCCCCn2ccc3ccccc32)co1)c1ccccc1 [EHT 6517, Benzoic acid 5-(5-indol-1-yl-pentyloxy)-4-oxo-4H-pyran-2-ylmethyl ester] |  |  |  |  |  |
| 59 to 61 °C | C=CCc1c(Cl)cc(Cl)cc1OCCCCCOc1coc(CO)cc1=O [EHT 6978, 5-[5-(2-Allyl-3,5-dichloro-phenoxy)-pentyloxy]-2-hydroxymethyl-4H-pyran-4-one] |  |  |  |  |  |
| 86 to 87 °C | C/C=C/c1oc(CO)cc(=O)c1OCCCCCOc1ccc(F)c(F)c1 [EHT 8307] |  |  |  |  |  |
| 91 to 93 °C | C/C=C/c1oc(CO)cc(=O)c1OCCCCCOc1cc(Cl)cc(Cl)c1CCC [EHT 9916, (E)-3-[5-(3,5-Dichloro-2-propyl-phenoxy)-pentyloxy]-6-hydroxymethyl-2-propenyl-4H-pyran-4-one] |  |  |  |  |  |
